# In paper PMC9814781, “Structure-based design of a dual-warhead covalent inhibitor of FGFR4” (Communications Chemistry, 2022):
# Key:
# FGFR4(C552A) mutant = conditions: cited from earlier work
# FGFR4 = biological target: T1, FGFR4 (Homo sapiens, UniProt P22455); test: MALDI-TOF MS covalent binding
# T1 construct: purchased ICE Bioscience
# Procedure: (§1) Wild-type FGFRs and mutant FGFRs were prepared as previously described[25]–[27]. […] The N-terminal of the recombinant proteins were contained a 6xHis tag followed by a PreScission cleavage site for FGFR1, FGFR2, FGFR3, and FGFR4. Site-directed mutagenesis of FGFR4 was generated according to the ClonExpress II One Step Cloning Kit (Vazyme) using the pET28a-FGFR4 plasmid as the template. […] For crystallization experiments, the wild-type FGFR4 plasmid was co-expressed with untagged YOPH to obtain non-phosphorylated proteins. The proteins were first purified by Ni-NTA affinity chromatography. The 6 × His tag was removed by PreScission protease. Then, anion exchange chromatography (Mono Q) and size exclusion chromatography (if necessary) were exploited for further purification. The target proteins were concentrated to ~5–15 mg/mL and flash frozen for storage at −80°C for subsequent studies.
# FGFR4(C477A) = biological target: T2, FGFR4(C477A) (Homo sapiens, UniProt P22455, C477A); test: MALDI-TOF MS covalent binding
# T2 construct: FGFR4 (residues 445–753); 6xHis + PreScission site (N, cleaved yes); made in house; host or cells: Escherichia coli Rosseta
# Procedure: as §1
# FGFR4(C552A) = biological target: T3, FGFR4(C552A) (Homo sapiens, UniProt P22455, C552A); test: MALDI-TOF MS covalent binding
# T3 construct: FGFR4 (residues 445–753); 6xHis + PreScission site (N, cleaved yes); made in house; host or cells: Escherichia coli Rosseta
# Procedure: as §1
# FGFR1 = FGFR1 (Homo sapiens, UniProt P11362); test: MALDI-TOF MS covalent binding
# Procedure: The N-terminal of the recombinant proteins were contained a 6xHis tag followed by a PreScission cleavage site for FGFR1, FGFR2, FGFR3, and FGFR4. […] The proteins were first purified by Ni-NTA affinity chromatography. The 6 × His tag was removed by PreScission protease. Then, anion exchange chromatography (Mono Q) and size exclusion chromatography (if necessary) were exploited for further purification. The target proteins were concentrated to ~5–15 mg/mL and flash frozen for storage at −80°C for subsequent studies.
# GSH reaction assay = format: in vitro ADME; conditions: GSH 5 mM, inhibitor 1 mM, 37°C, 10–60 min
# Procedure: GSH (5 mM) and inhibitor (1 mM) or DMSO control were mixed in equal volumes and reacted at 37°C for 10 min, 20 min, 30 min, 40 min, 50 min, and 60 min. The remaining GSH was detected with DTNB (Beyotime, China), and the absorption light was measured at 412 nm on a plate reader (Perkin-Elmer). Data were determined using the time (min) versus % of control in Origin 2018 software.
# T2 sequence (P22455 445-753 C477A): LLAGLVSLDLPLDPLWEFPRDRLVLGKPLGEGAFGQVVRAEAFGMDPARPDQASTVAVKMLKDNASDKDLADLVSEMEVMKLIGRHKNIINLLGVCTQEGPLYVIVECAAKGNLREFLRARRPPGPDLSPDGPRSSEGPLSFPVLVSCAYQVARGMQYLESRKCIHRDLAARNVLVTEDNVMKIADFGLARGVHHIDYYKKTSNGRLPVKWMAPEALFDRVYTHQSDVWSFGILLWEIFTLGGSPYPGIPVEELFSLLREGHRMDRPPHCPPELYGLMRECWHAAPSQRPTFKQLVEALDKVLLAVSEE
# T1 sequence (P22455 22-802): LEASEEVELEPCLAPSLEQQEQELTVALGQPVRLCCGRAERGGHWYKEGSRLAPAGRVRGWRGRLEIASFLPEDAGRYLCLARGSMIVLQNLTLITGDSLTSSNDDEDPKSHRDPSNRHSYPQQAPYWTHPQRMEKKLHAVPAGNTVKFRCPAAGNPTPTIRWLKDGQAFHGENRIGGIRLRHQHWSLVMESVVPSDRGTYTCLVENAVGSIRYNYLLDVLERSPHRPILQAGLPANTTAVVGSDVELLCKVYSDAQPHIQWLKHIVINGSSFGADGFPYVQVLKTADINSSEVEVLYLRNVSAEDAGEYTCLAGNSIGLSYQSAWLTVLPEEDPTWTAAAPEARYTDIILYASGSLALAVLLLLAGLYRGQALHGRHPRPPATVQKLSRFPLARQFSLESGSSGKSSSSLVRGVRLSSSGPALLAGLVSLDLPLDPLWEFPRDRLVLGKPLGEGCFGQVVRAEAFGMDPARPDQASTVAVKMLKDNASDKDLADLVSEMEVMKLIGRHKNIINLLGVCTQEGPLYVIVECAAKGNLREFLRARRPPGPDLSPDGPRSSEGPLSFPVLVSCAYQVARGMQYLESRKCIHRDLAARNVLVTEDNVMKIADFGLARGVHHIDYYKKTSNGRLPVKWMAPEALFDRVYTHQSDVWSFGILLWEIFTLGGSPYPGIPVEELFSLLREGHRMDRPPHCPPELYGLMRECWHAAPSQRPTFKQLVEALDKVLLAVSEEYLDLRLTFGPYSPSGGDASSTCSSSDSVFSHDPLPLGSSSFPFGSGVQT
# FGFR1, sequence (P11362 22-822): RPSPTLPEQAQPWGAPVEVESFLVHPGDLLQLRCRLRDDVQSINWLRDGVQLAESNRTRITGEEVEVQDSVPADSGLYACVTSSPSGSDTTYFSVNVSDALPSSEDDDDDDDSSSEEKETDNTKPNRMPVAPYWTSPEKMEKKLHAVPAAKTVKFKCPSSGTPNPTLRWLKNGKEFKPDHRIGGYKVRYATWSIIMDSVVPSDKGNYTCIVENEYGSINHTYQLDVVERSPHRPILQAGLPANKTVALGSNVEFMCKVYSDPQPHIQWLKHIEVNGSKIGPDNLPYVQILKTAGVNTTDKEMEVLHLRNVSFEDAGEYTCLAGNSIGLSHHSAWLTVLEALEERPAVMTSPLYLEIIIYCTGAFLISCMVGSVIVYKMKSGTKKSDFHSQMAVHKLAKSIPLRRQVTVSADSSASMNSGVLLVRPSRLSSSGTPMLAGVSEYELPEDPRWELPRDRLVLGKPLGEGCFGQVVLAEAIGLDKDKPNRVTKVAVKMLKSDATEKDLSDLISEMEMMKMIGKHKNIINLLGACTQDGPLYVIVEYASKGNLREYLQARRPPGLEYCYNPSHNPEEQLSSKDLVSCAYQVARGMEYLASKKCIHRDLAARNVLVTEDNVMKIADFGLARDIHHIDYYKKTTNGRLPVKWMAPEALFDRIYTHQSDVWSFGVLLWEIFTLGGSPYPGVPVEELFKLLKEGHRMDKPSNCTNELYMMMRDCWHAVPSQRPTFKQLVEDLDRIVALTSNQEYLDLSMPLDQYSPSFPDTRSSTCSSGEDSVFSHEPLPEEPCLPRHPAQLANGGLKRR
# T3 sequence (P22455 445-753 C552A): as the sequence (P22455 445-753 C477A) above, with A33C, C108A counted along it
smiles,measurement,setting,value
C=CC(=O)N[C@H]1CCOC[C@H]1Nc1ncc2cc(-c3c(Cl)c(OC)cc(OC)c3Cl)ccc2n1 [BLU554],IC50,FGFR4(C552A) mutant,> 10 µM
C=CC(=O)Nc1cccc(C)c1Nc1ncc2c(n1)N(CCCN1CCN(C(=O)C=C)CC1)C(=O)N(c1cc(OC)cc(OC)c1)C2 [CXF-008],covalent bond formation (mass shift),FGFR4,only forms one covalent bond with Cys552 of FGFR4
same,covalent bond formation (mass shift),FGFR4(C477A),forms a covalent bond with FGFR4(C477A)
same,covalent bond formation (mass shift),FGFR4(C552A),not with FGFR4(C552A)
same,covalent bond formation (mass shift),FGFR1,forms a covalent bond with FGFR1
"C=CC(=O)N1CCN(CCCn2c(=O)c(-c3c(Cl)c(OC)cc(OC)c3Cl)cc3cnc(NC)nc32)CC1 [PRN1371, 8-(3-(4-Acryloylpiperazin-1-yl)propyl)-6-(2,6-dichloro-3,5-dimethoxyphenyl)-2-(methylamino)pyrido[2,3-d]pyrimidin-7(8H)-one, reference compound]","GSH reactivity (remaining GSH, DTNB)",GSH reaction assay,time-dependent decrease in GSH
